Laboratory results from patent publication US20250144099A1, “INK4 TUMOR SUPPRESSOR PROTEINS MEDIATE RESISTANCE TO CDK4/6 KINASE INHIBITORS” (MEMORIAL SLOAN-KETTERING CANCER CENTER, priority 2021, published 2025).
Entries after “also recorded” stand apart in the source; their conditions may differ.

Tests used:
CDK4 = target: T1, CDK4 (Homo sapiens, UniProt P11802); assay: Immunoblotting of CDK4 degradation in cells; type: cell-based
T1 construct: CDK4 and CDK6 were immunoprecipitated from isogenic drug sensitive (MCF7 parental cells with low CDK6); endogenous in cells; host or cells: MCF-7 parental and MCF-7 FAT1 CRISPR knockout (CDK6-high) cells
T1 sequence (P11802 whole entry): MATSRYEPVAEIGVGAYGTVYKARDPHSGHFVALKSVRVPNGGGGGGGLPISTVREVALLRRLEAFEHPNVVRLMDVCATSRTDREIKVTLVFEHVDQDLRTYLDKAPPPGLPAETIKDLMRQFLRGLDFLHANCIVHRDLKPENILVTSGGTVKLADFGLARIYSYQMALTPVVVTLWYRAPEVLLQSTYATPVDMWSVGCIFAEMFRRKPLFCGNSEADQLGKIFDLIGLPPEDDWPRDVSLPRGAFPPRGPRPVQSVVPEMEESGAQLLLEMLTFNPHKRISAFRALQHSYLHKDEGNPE
T1 sequence (P24385 whole entry partner): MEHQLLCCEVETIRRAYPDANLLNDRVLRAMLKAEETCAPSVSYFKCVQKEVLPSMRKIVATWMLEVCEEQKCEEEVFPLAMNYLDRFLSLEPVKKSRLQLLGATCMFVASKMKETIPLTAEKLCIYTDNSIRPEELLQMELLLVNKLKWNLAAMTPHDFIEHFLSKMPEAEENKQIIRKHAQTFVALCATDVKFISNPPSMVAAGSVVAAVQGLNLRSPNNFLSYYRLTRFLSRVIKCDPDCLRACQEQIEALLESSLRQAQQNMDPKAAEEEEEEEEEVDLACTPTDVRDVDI
Experimental: (§1) Cell lysates were collected in RIPA buffer (Thermo Fisher Scientific) supplemented with protease and phosphatase inhibitors (Pierce). Protein concentration was quantified by using the BCA kit (Fisher Scientific). […] of protein lysates were loaded onto 4-12% SDS-PAGE gels (Invitrogen) for electrophoresis and transferred onto nitrocellular membranes. Blots were blocked with Intercept™ (TBS) Blocking Buffer (LI-COR Bioscience #927-60001) and incubated with primary antibody at 4° C. overnight. Secondary antibodies conjugated with fluorescence (LI-COR Bioscience #926-68071 and #926-32210) were incubated for 1 h at room temperature and blots were scanned by Odyssey Clx Imaging System from LI-COR Bioscience.

phosphorylation of Rb = assay: Immunoblotting of Rb phosphorylation in cells; type: cell-based, human; settings: FAT1 loss / CDK6-high CDK4/6i-resistant MCF7 cells
Experimental: as §1

MCF-7 parental cells [1] = assay: Cell viability assay (Resazurin); type: cell-based, human; settings: day 7
Experimental: Cell viability was measured by Resazurin (R&D Systems, Minneapolis, MN, USA) as described previously (51). Briefly, 1,500 cells were seeded in a 96-well plate and allowed to recover overnight. Cells were treated with drugs at day 0. Resazurin was added to the cells 4 hours prior to the measurements on day 3, day 5 and day 7. Fluorescent intensity was measured using a microplate reader (SpectraMax M5, Molecular Devices, Sunnyvale, CA, USA). IC50 was calculated by GraphPad Prism 7.0 using a sigmoidal regression model.

MCF-7 parental cells [2] = assay: Senescence Green staining and cell cycle analysis; type: cell-based, human; settings: 500 nM; senescence 8 days, cell cycle 24 h
Experimental: Senescence analysis. […] Cells were harvested using trypsin/EDTA, then stained with the CellEvent Senescence Green Flow Cytometry Assay Kit (Invitrogen) according to the manufacturer's instructions. Briefly, cells were fixed with 2% paraformaldehyde for 15 min at room temperature and stained with the CellEvent Senescence Green Probe for 2 hours at 37° C. without CO2. After incubation, cells were washed with PBS 3 times and resuspended in FACS buffer (PBS with 2% FBS) for analysis on BD Biosciences LSR Fortessa using a 488 nm laser and 530 nm/30 filter (BD Biosciences). Data analysis was performed with FCS Express 7 (De Novo Software).
Cell cycle analysis. […] Cells were detached from the cell culture dish with trypsin/EDTA, then washed with PBS and fixed in 70% ice-cold EtOH overnight. Prior to staining, EtOH was removed, and cells were washed twice with FACS buffer. Cells were then resuspended in staining buffer containing 1000 μl FACS buffer with 2 μg/ml propidium iodide (Invitrogen) and 100 μg/ml RNase A (Invitrogen). Cell cycle profiles were measured with BD Biosciences LSR Fortessa and analyzed with FCS Express 7.

MOLT4 cells = assay: Global quantitative mass spectrometry proteomics; type: cell-based, human; settings: 250 nM, 5 h
Experimental: Molt4 cells were treated with 250 nM of compounds BSJ-05-017 or BSJ-03-096 (singlicate) or DMSO control (biological triplicate) for 5 hours. Cells were harvested by centrifugation and prepared for mass spectrometry as described previously (28). Data were collected as reported (28). LC-MS data were analyzed using Proteome Discoverer 2.4 (Thermo Fisher Scientific), as previously described (28). Reporter ion intensities were normalized and scaled using in-house scripts in the R framework (63). Statistical analysis was carried out using the limma package within the R framework (64).

Pharmacokinetic study = type: in vivo, C57BL/6 male mice
Experimental: Pharmacokinetic study. C57BL/6 male mice were dosed with BSJ-05-017 solution formulation (i.p., 5/95 DMSO/10% captisol, dose 25 mg/kg) and BSJ-03-096 solution formulation (p.o., 5/95 DMSO/10%, dose 10 mg/kg). Blood samples were collected at 0.08, 0.25, 0.5, 1, 2, 4, 6, 8 and 24 hr. The blood samples were collected from sets of three mice at each time point in microcentrifuge tubes containing K2EDTA as an anticoagulant. Plasma samples were separated by centrifugation and stored below −70° C. until bioanalysis. All samples were processed for analysis by precipitation using acetonitrile and analyzed with a partially validated LC/MS/MS method (LLOQ −1.22 ng/mL for IV and PO, LLOQ −5.02 ng/mL for IP). Pharmacokinetic parameters were calculated using the noncompartmental analysis tool of WinNonlin Enterprise software (Version 6.3).

[3] = system: CDK6-overexpressing xenografts; assay: Efficacy study, cell-derived xenograft; type: in vivo, NSG mice; settings: BSJ-05-017 50 mg/kg i.p., BSJ-03-096 50 mg/kg p.o., 25-35 days
Experimental: (§2) Efficacy study. NOD.Cg-Prkdc Il2rg<tm1Wjl>/SzJ (NSG) mice were obtained from the Jackson Laboratory (Stock #: 005557). Each mouse was injected with MCF7 parental, CDK6-ovexpressing or PTEN loss cells subcutaneously 1 week after the implantation of estradiol pellets (25 mg). […] Tumor volumes were recorded every 3-4 days. Mice were sacrificed if tumors reached 1000 mm^3 or at the end of the experiment. Tumors were collected and processed as described above.

[4] = system: MCF7 parental cell-derived xenografts; assay: Efficacy study, cell-derived xenograft; type: in vivo, NSG mice; settings: ribociclib 25 mg/kg p.o., BSJ-05-017 50 mg/kg i.p., BSJ-03-096 50 mg/kg p.o., 25-35 days
Experimental: as §2

[5] = system: shPTEN (PTEN loss) xenografts; assay: Efficacy study, cell-derived xenograft; type: in vivo, NSG mice; settings: BSJ-05-017 50 mg/kg i.p., BSJ-03-096 50 mg/kg p.o., 25-35 days
Experimental: as §2

[6] = system: patient-derived xenograft models; assay: Patient-derived xenograft tumor growth; type: in vivo, mice; settings: two patient-derived xenograft models; ribociclib at clinical equivalent dose
[7] = system: prostate cancer cell 22RV1; assay: Colony formation assay; type: cell-based; settings: 21 days treatment
CDK6 = CDK6 (Homo sapiens, UniProt Q00534); assay: Immunoblotting of CDK6 degradation in cells; type: cell-based; design: MCF7 cells that lost FAT1 expression and with high CDK6 expression; endogenous in cells; host or cells: MCF-7 FAT1 loss cells (also MCF-7 parental)
CDK6, sequence (Q00534 whole entry): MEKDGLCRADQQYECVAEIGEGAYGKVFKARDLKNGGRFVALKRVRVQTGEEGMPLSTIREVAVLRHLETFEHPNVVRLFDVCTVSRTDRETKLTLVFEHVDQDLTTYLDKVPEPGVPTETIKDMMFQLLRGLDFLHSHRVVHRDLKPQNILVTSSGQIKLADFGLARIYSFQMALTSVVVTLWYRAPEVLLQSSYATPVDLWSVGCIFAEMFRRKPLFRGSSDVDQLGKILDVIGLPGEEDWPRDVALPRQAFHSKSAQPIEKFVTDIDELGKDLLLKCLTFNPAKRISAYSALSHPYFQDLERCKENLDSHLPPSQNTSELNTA
Experimental: as §1

[8] = FAT1 loss / CDK6-high CDK4/6i-resistant MCF7 cells, 24 h treatment
[9] = MCF7 cells with overexpression of CDK6

degradation of CDK4 (CDK4; [9]): effectively degrade CDK4 and CDK6
Cmax (Pharmacokinetic study; male, C57BL/6, mouse, plasma, ip, single dose 25 mg/kg i.p.): 2600 nM
concentration at 24 h (Pharmacokinetic study; male, C57BL/6, mouse, plasma, ip, single dose 25 mg/kg i.p., read-out: plasma concentration at 24h post dosing): ~100 nM
metabolic stability (Pharmacokinetic study; single dose in mice, i.p. or p.o.): good metabolic stability
degradation of CDK6 (CDK6; [9]): effectively degrade CDK4 and CDK6
Compound: CC(=O)c1c(C)c2cnc(Nc3ccc(N4CCN(CCCCC(=O)N[C@H](C(=O)N5C[C@H](O)C[C@H]5C(=O)N[C@@H](C)c5ccc(-c6scnc6C)cc5)C(C)(C)C)CC4)cn3)nc2n(C2CCCC2)c1=O [BSJ-05-017, (2S,4R)-1-((S)-2-(5-(4-(6-((6-acetyl-8-cyclopentyl-5-methyl-7-oxo-7,8-dihydropyrido[2,3-d]pyrimidin-2-yl)amino)pyridin-3-yl)piperazin-1-yl)pentanamido)-3,3-dimethylbutanoyl)-4-hydroxy-N—((S)-1-(4-(4-methylthiazol-5-yl)phenyl)ethyl)pyrrolidine-2-carboxamide]
degradation of CDK4 (CDK4; [8]): most significant degradation of both CDK4 and CDK6; also recorded: high potency in degrading CDK4 and CDK6
inhibition of phosphorylation of Rb (and downstream E2F1/cyclin A2) (phosphorylation of Rb): effective inhibition of the phosphorylation of Rb
inhibition of cell growth (MCF-7 parental cells [1]): equal potency; also recorded: equipotent in suppressing proliferation
senescence and cell cycle arrest (MCF-7 parental cells [2]): induces senescence and cell cycle arrest to a same extent as abemaciclib and palbociclib
selectivity in global proteomics (MOLT4 cells): highly selective for CDK4 and CDK6
durable tumor inhibition (percent) [3]: −64.9%
tumor response [4]: sensitive
durable tumor inhibition (percent) [5]: ~47.4%
inhibition of tumor growth [6]: effective in inhibiting tumor growth
colony formation [7]: more sensitive to BSJ-05-017 than to palbociclib
degradation of CDK6 (CDK6; [8]): most significant degradation of both CDK4 and CDK6; also recorded: high potency in degrading CDK4 and CDK6
